pKd: −log10 of the molar value.
Target: T1, Tau (Homo sapiens, UniProt P10636)
T1 construct: gene MAPT; full-length wildtype Tau (hTau40; 441 aa; 2N4R isoform, UniprotKB P10636-8)
Assay: microscale thermophoresis (MST) with fluorescently labelled Tau; supported by trDLS, microscopy and TEM of Tau:suramin condensates
Format: binding

T1 sequence (P10636 2-441 isoform P10636-8): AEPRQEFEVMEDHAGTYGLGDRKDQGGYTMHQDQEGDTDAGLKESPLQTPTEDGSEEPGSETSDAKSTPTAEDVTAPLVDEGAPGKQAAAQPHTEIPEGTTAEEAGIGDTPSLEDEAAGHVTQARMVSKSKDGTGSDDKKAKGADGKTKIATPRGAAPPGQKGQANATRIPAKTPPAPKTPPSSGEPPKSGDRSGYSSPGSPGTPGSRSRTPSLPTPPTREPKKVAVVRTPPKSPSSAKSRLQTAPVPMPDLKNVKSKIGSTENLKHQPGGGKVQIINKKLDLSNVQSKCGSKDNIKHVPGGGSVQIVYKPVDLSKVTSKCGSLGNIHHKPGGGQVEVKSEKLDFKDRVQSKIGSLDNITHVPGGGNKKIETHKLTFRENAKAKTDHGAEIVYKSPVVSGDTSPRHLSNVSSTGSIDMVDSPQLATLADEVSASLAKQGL

pKd: ~4.77
Structure (SMILES): Cc1ccc(C(=O)Nc2ccc(S(=O)(=O)O)c3cc(S(=O)(=O)O)cc(S(=O)(=O)O)c23)cc1NC(=O)c1cccc(NC(=O)Nc2cccc(C(=O)Nc3cc(C(=O)Nc4ccc(S(=O)(=O)O)c5cc(S(=O)(=O)O)cc(S(=O)(=O)O)c45)ccc3C)c2)c1 [suramin]

— article PMC9997437, “Initiation and modulation of Tau protein phase separation by the drug suramin” (Scientific Reports, 2023)
